Article PMC6902473 (Clinical Epigenetics, 2019)
Values joined by “and” are separate entries in the source; they are usually repeats but may differ in a detail not shown here. Equal values may be shown once.

Key:
[1] = human, in vivo
Method: The study design was a single-arm, multi-center phase I/II clinical trial with two phases: Phase I was an intra-patient dose (de)escalation period until an individual maximum tolerable dose (MTD) was reached. […] A DLT was defined as grade 3 or 4 toxicity according to a selection of Common Toxicity Criteria for Adverse Events (CTCAE) (V4.0) and judged by the investigator as definitely, probably, or possibly related to the study drug. The starting dose was 180 mg/m^2/day and the minimum dose was 30 mg/m^2/day. A dosing nomogram was used to minimize interpatient dosing variability.
De-escalation was done in steps of 50 mg/m^2/day until a minimal dose of 30 mg/m^2/day was reached. […] Upon reaching her or his individual MTD, a patient seamlessly entered phase II of the protocol.
(§1) During phase II, disease assessments were performed every 3 months, starting 3 months after reaching individual MTD. If treatment was discontinued for any reason during phase II, treatment was prolonged thereafter to provide a minimal treatment window of 3 months before measuring response. Patients without progressive disease continued the therapy at their individual MTD until disease progression (but no longer than 9 months). In case of clinical benefit, treatment could be continued on an individual basis at the discretion of the investigator. Toxicities were graded according CTCAE V4.0.
(§2) The primary end point was to determine a safe dose recommendation (SDR), defined as the highest dose with a DLT in no more than 1/50 patients.
The DLT associated with the starting dose was to be continuously monitored using a Bayesian criterion with a non-informative prior and a binomial-beta model for the DLT rate r. […] This decision process was repeated, i.e., it was applied to the lowered starting dose in an analogous way.
All adverse events were summarized, using MedDRA preferred terms.

[2] = test system: relapsed or therapy-refractory solid tumors (including brain tumors), lymphoma, or leukemia; assay: Phase II tumor response and survival at individual MTD (RECIST version 1.1)
Method: as §1, §2
Pretreatment evaluations included medical history, physical examination, ECG, ß-hCG in urine pregnancy test (if applicable), and complete blood count including differential, serum electrolytes liver, and renal function tests. Tumor markers were determined if appropriate. During phase I and the first 3 months of phase II (until the first response evaluation), history, physical examination, and laboratory studies were obtained weekly. If patients continued treatment beyond the first response evaluation in phase II (i.e., not showing PD), evaluations were performed every 2 weeks. After end of treatment, patients were followed-up for 3 months according the same scheme. In addition, an ECG was performed during phase I on day 8, 15, and at the time of reaching the individual MTD. Disease evaluations were performed at baseline, after 3 months of treatment at individual MTD, and every 3 months thereafter, using MRI (solid tumors, brain tumors, lymphomas), MIBG scan (neuroblastoma), or bone marrow evaluation (leukemia). Responses were reported using RECIST version 1.1 (solid tumors, brain tumors, lymphomas) [42–44] or the International Neuroblastoma Response Criteria (INRC) (neuroblastoma) [45], by central review. Bone marrow aspirates were evaluated in a central lab together with peripheral blood differential blood counts.
Standard methods for survival analysis (e.g., Kaplan-Meier estimates of the survival curves, Greenwood’s formula for estimating the standard error of event rates) were used for the analysis of time-to-event endpoints. […] Efficacy analysis included all patients who had completed the escalation/de-escalation scheme and started with the individual therapy at the MTD.
The AUCs were calculated by mixed log-linear model. Following exploratory aims to predict progression free survival (PFS) and overall survival (OS), an optimal cutpoint in the continuous PK parameter distributions of Cmax and AUC/D was determined by the minimum p value approach based on the log-rank test [51]. Graphical and statistical analysis was performed with Graphpad Prism 7.0 (Graphpad Software Inc., La Jolla, CA, USA), Kinetica 5.0 (Thermo Fisher Scientific, Waltham, MA, USA), and the R software/environment version 3.5.1 (R Foundation for Statistical Computing, Vienna, Austria).

[3] = single patient: High grade glioma, highest methylation score for glioblastoma IDH wt, (NC) not censored
[4] = single patient: High grade glioma, methylation profile pilocytic astrocytoma, BRAF (p.V600E), (C) censored
[5] = single patient: Medulloblastoma, (C) censored
[6] = single patient: SETTLE tumor, (C) censored

O=C(CCCCCCC(=O)Nc1ccccc1)NO [vorinostat]
Patients with all causalities AE: AE [1]: 49 (98) No. (%) | Patients with all causalities AE: AE leading to dose reduction or temporary treatment discontinuation [1]: 38 (76) No. (%) | Patients with all causalities AE: AE leading to treatment discontinuation [1]: 9 (18) No. (%) | Patients with all causalities AE: SAEs [1]: 19 (38) No. (%) | Patients with all causalities AE: Severe AEs (CTCAE grade 3/4) [1]: 48 (96) No. (%) | Patients with treatment related AE: Alanine aminotransferase increased [1]: 2 (4.0) Patients (%) | Patients with treatment related AE: Alopecia [1]: 9 (18.0) Patients (%) | Patients with treatment related AE: Anemia [1]: 8 (16.0) Patients (%) | Patients with treatment related AE: Blood creatinine increased [1]: 5 (10.0) Patients (%) | Patients with treatment related AE: Blood lactate dehydrogenase increased [1]: 4 (8.0) Patients (%) | Patients with treatment related AE: Constipation [1]: 4 (8.0) Patients (%) | Patients with treatment related AE: Cough [1]: 3 (6.0) Patients (%) | Patients with treatment related AE: Decreased appetite [1]: 5 (10.0) Patients (%) | Patients with treatment related AE: Diarrhea [1]: 11 (22.0) Patients (%) | Patients with treatment related AE: Dry skin [1]: 4 (8.0) Patients (%) | Patients with treatment related AE: Fatigue [1]: 9 (18.0) Patients (%) | Patients with treatment related AE: Headache [1]: 5 (10.0) Patients (%) | Patients with treatment related AE: Nausea [1]: 11 (22.0) Patients (%) | Patients with treatment related AE: Platelet count decreased [1]: 6 (12.0) Patients (%) | Patients with treatment related AE: Pyrexia [1]: 3 (6.0) Patients (%) | Patients with treatment related AE: Vomiting [1]: 8 (16.0) Patients (%) | Patients with treatment related AE: Weight decreased [1]: 5 (10.0) Patients (%) | Patients with treatment related AE: White blood cell decreased [1]: 1 (2.0) Patients (%) | Total of patients with treatment related AE: Alanine aminotransferase increased [1]: 4 (8.0, 2.2 - 19.2) Patients (%, 95% CIs) | Total of patients with treatment related AE: Alopecia [1]: 9 (18.0, 8.6 - 31.4) Patients (%, 95% CIs) | Total of patients with treatment related AE: Blood creatinine increased [1]: 5 (10.0, 3.3 - 21.8) Patients (%, 95% CIs) | Total of patients with treatment related AE: Blood lactate dehydrogenase increased [1]: 4 (8.0, 2.2 - 19.2) Patients (%, 95% CIs) | Total of patients with treatment related AE: Constipation [1]: 4 (8.0, 2.2 - 19.2) Patients (%, 95% CIs) | Total of patients with treatment related AE: Decreased appetite [1]: 7 (14.0, 5.8 - 26.7) Patients (%, 95% CIs) | Total of patients with treatment related AE: Headache [1]: 6 (12.0, 4.5 - 24.3) Patients (%, 95% CIs) | Total of patients with treatment related AE: Weight decreased [1]: 8 (16.0, 7.2 - 29.1) Patients (%, 95% CIs) | Total of patients with treatment related AE: White blood cell decreased [1]: 9 (18.0, 8.6 - 31.4 ) Patients (%, 95% CIs) | Total sum of DLTs: Abdominal pain [1]: 1 | Total sum of DLTs: Abdominal pain upper [1]: 2 | Total sum of DLTs: Aggression [1]: 1 | Total sum of DLTs: Alanine aminotransferase increased [1]: 3 | Total sum of DLTs: Anemia [1]: 2 | Total sum of DLTs: Apathy [1]: 1 | Total sum of DLTs: Decreased appetite [1]: 3 | Total sum of DLTs: Fatigue [1]: 7 | Total sum of DLTs: Febrile infection [1]: 2 | Total sum of DLTs: Hypermagnesemia [1]: 3 | Total sum of DLTs: Hypokalemia [1]: 1 | Total sum of DLTs: Loss of personal independence in daily activities [1]: 1 | Total sum of DLTs: Vomiting [1]: 2 | Total sum of DLTs: Weight decreased [1]: 2 | Total sum of DLTs: White blood cell decreased [1]: 11 | Best ORR (CR + PR + SD) ([2]; Efficacy population (n = 27)): 6 (22.2, 8.6–42.3) No. (%, 95% CI) | Best RR (CR + PR) ([2]; Efficacy population (n = 27)): 4 (14.8, 4.2–33.7) No. (%, 95% CI) | Median OS (95% CI) ([2]; Efficacy population (n = 27)): 22.4 months and 22.4 (6.3 - --) months | Median PFS (95% CI) ([2]; Efficacy population (n = 27)): 5.3 (4.6–5.9) months | Median response duration ([2]; Efficacy population (n = 27)): 19.1 months | best overall response rate (combining PR and SD, no CR observed) ([2]; Efficacy population (n = 27)): 22% | Best ORR (CR + PR + SD) ([2]; Safety population (n = 50)): 6 (12.0, 4.5–24.3) No. (%, 95% CI) | Best RR (CR + PR) ([2]; Safety population (n = 50)): 4 (8.0, 2.2–19.2) No. (%, 95% CI) | Median OS (95% CI) ([2]; Safety population (n = 50)): 6.1 (4.0–10.4) months | Median PFS (95% CI) ([2]; Safety population (n = 50)): 4.6 (3.7–5.3) months | Median response duration ([2]; Safety population (n = 50)): 19.1 months | patients with partial response (PR) ([2]; first response evaluation, after 3-month treatment at individual MTD, efficacy population): 3/27 | OS [2, 3]: 750 (NC) Days | PFS [2, 3]: 441 (NC) Days | OS [2, 4]: 1352 (C) Days | PFS [2, 4]: 385 (C) Days | PFS ([2]; single patient: High grade glioma, no molecular data, last dose level 280 mg/m^2/d, (C) censored): 499 (C) Days | OS ([2]; single patient: High grade glioma, no molecular data, last dose level 280 mg/m^2/d, (NC) not censored): 682 (NC) Days | OS [2, 5]: 871 (C) Days | PFS [2, 5]: 422 (C) Days | OS [2, 6]: 1190 (C) Days | PFS [2, 6]: 456 (C) Days
